# Assays:
# [1] = tested on: green rice leafhopper (female adults); assay: Test 2 (Effect on Green Rice Leafhopper); type: in vivo; details: 48 hours, marked * in Table 3
# plants of Solanacede = assay: phytotoxicity to plants of Solanacede
# yearling carps = assay: Test 5 (Fish Toxicity); type: in vivo, carp
# Protocol: (§1) Compounds (a) through (g) described below were tested as comparative compounds in the same manner as the compounds of the present invention. All the tests were doubly carried out. Namely, each result was expressed by an average value of two data.
# A water tank having a width of 60 cm, a length of 30 cm and a height of 40 cm was filled with water, and 10 yearling carps having a body length of about 5 cm were set free in the tank and adapted to the environment in the tank. An acetone solution of a test compound was applied into water so as to become a concentration of 1 or 0.1 ppm in water by adding said acetone solution at a rate of one part by volume per 100 parts by volume of water. 48 hours after, the number of killed and living carps was counted and the effect of a test compound on carps was examined.
# [2] = tested on: two-spotted spider mite (adults); assay: Test 4 (Effect on Two-Spotted Spider Mite); type: in vivo; details: Tetranychus urticae; 200 ppm; 24 hours; adults; read-out: Mortality (%)
# Protocol: as §1
# A kidney bean leaf disc (20 mm in diameter) perforated with a cork borer was placed on water-impregnated absorbent cotton, and thereon 20 adults of two-spotted spider mite were set free, and the resulting set was allowed to stand around the clock. The same dilution of the emulsifiable concentrate of a test compound having a concentration of 200 ppm as used in Test 1 and Test 2, was applied by an applicator having a diameter of 20 cm and a height of 60 cm in an amount of 3 ml. 24 hours after, the number of killed adults was counted.
# [3] = tested on: green rice leafhopper (female adults); assay: Test 2 (Effect on Green Rice Leafhopper); type: in vivo; details: Nephotettix cincticeps, 48 hours, female adults, read-out: Mortality (%)
# Protocol: as §1
# Four or five seedlings of paddy rice with three leaves were bundled, and thereon the same dilution of the emulsifiable concentrate as used in Test 1 was sprayed in an amount of 3 ml. The bundle was dried and covered with a metal net cylinder, and 10 female adults of green rice leafhopper were set free in the cylinder. 48 hours after, the number of killed adults was counted.
# [4] = tested on: common cutworm (third-instar larvae); assay: Test 1 (Effect on Common Cutworm); type: in vivo; details: Spodoptera litura, 48 hours, third-instar larvae, read-out: Mortality (%)
# Protocol: as §1
# The emulsifiable concentrate of the test compound, prepared according to the method described in Formulation Example 1, was diluted with water to a specified concentration. Sweet potato leaves were sufficiently immersed in the dilution. The sweet potato leaves were dried and placed in a plastic cup having a diameter of 10 cm, and 10 third-instar larvae of common cutworm were set free in each cup. 48 hours after, the numbers of killed and living larvae were counted and the mortality was calculated.
# [5] = tested on: German cockroach (female adults); assay: Test 3 (Effect on German Cockroach); type: in vivo, Blatella germanica (German cockroach); details: Blattella germanica, 48 hours, female adults, read-out: Mortality (%); for mortality at 1 mg/m2: 1 mg/m^2; for mortality at 5 mg/m2: 5 mg/m^2
# Protocol: as §1
# One ml of an acetone solution of a test compound of a specified concentration was poured in a high Petri dish having a diameter of 9 cm and a height of 9 cm. The Petri dish was allowed to stand, and thereby the acetone was evaporated. The upper part of the inner wall of the Petri dish was treated with butter to prevent the adults of German cockroach from escaping from the Petri dish. 10 female adults of German cockroach were set free in each Petri dish. 48 hours after, the number of killed adults was counted.
Compound,Rate of Number of Adults KnockedDown ([1]; 20 ppm) [%],Rate of Number of Adults KnockedDown ([1]; 100 ppm) [%],phytotoxicity to plants of Solanacede (plants of Solanacede),Mortality(%) 48 Hours After (yearling carps; 0.1 ppm in water) [%],Mortality(%) 48 Hours After (yearling carps; 1 ppm in water) [%],mortality at 200 ppm [2] [%],mortality at 20 ppm [3] [%],mortality at 100 ppm [3] [%],mortality at 20 ppm [4] [%],mortality at 100 ppm [4] [%],mortality at 1 mg/m2 [5] [%],mortality at 5 mg/m2 [5] [%]
1-(3-Benzoylphenyl)-4-(4-chlorophenyl)-4-methylpentane [Compound 11],60,90,–,–,–,–,–,–,–,–,–,–
"CC(C)C(C(=O)OC(C#N)c1cccc(Oc2ccccc2)c1)c1ccc(Cl)cc1 (stereo not shown) [(g), Fenvalerate, reference compound]",–,–,observed,100,100,–,–,–,–,–,–,–
"CCOc1ccc(C(C)(C)CCCN2C(=O)C3=C(CCCC3)C2=O)cc1 [Compound 12, 1-(3,4,5,6-Tetrahydrophthalimido)-4-(4-ethoxyphenyl)-4-methylpentane]",40,80,–,–,–,–,–,–,–,–,–,–
CCOc1ccc(C(C)(C)CCCc2cccc(Oc3ccccc3)c2)cc1 [Compound 24],–,–,–,0,0,95,100,100,100,100,100,100
CCOc1ccc(C(C)(C)CCCc2ccc(F)c(Oc3ccccc3)c2)cc1Cl [Compound 57],–,–,–,0,0,91,100,100,100,100,100,100

# From patent US4814340A, “1,4-diaryl alkane derivatives having insecticidal and acaricidal activity” (priority 1982, dated 1989)
